Measurements from US9149038B2, “4-amino-6-(heterocyclic)picolinates and 6-amino-2-(heterocyclic)pyrimidine-4-carboxylates and their use as herbicides” (Dow AgroSciences LLC, priority 2013, dated 2015).
Read-outs that look alike come from different tables or passages of the source.

Tested on: Direct Seeded Rice and weed species
Assay: Postemergence herbicidal activity in direct seeded rice, visual rating after 20-22 days and probit GR20/GR50/GR80/GR90 (Table 14)
Format: in vivo
Settings: for pest or weed control at 17.5 g/ha / pest or weed control at 35 g/ha / pest or weed control at 70 g/ha: post-emergence, 504 h, postemergence; for pest or weed control at 17.5 g/ha: 17.5 g ai/ha; for pest or weed control at 35 g/ha: 35 g ai/ha; for pest or weed control at 70 g/ha: 70 g ai/ha
Excerpt: Herbicidal evaluations were made visually on a scale of 0 to 100 where 0 represents no activity and 100 represents complete plant death. Seeds or nutlets of the desired test plant species were planted in a soil matrix prepared by mixing a loam soil (43 percent silt, 19 percent clay, and 38 percent sand, with a pH of about 8.1 and an organic matter content of about 1.5 percent) and river sand in an 80 to 20 ratio. The soil matrix was contained in plastic pots with a surface area of 139.7 cm^2. When required to ensure good germination and healthy plants, a fungicide treatment and/or other chemical or physical treatment was applied. The plants were grown for 10-17 d in a greenhouse with an approximate 14-h photoperiod which was maintained at about 29° C. during the day and 26° C. during the night. Nutrients and water were added on a regular basis and supplemental lighting was provided with overhead metal halide 1000-Watt lamps as necessary. The plants were employed for testing when they reached the second or third true leaf stage. A weighed amount, determined by the highest rate to be tested, of each test compound was placed in 25 mL glass vials and dissolved in a volume of 97:3 v/v acetone-DMSO to obtain 12× stock solutions. […] The concentrated stock solutions were added to the spray solutions so that the final acetone and DMSO concentrations were 16.2% and 0.5%, respectively. Spray solutions were diluted to the appropriate final concentrations with the addition of 10 mL of an aqueous mixture of 1.5% (v/v) Agri-dex crop oil concentrate. The final spray solutions contained 1.25% (v/v) Agri-dex crop oil concentrate. Compound requirements are based upon a 12 mL application volume at a rate of 187 L/ha. Formulated compounds were applied to the plant material with an overhead Mandel track sprayer equipped with […] nozzles calibrated to deliver 187 L/ha over an application area of 0.503 square meters (m^2) at a spray height of 18 inches (43 cm) above average plant canopy height. Control plants were sprayed in the same manner with the solvent blank. The treated plants and control plants were placed in a greenhouse as described above and watered by sub-irrigation to prevent wash-off of the test compounds. After 20-22 days, the condition of the test plants, compared with that of the untreated plants, was determined visually and scored on a scale of 0 to 100 percent where 0 corresponds to no injury and 100 corresponds to complete kill and are presented as indicated in Table 4. By applying the well-accepted probit analysis as described by J. Berkson in Journal of the American Statistical Society, 48, 565 (1953) and by D. Finney in “Probit Analysis” Cambridge University Press (1952), herbicidal injury of a specific compound at various rates can be used to calculate GR20, GR50, GR80 and GR90 values, which are defined as growth reduction factors that correspond to the effective dose of herbicide required to provide plant growth reduction (GR) of 20 percent, 50 percent, 80 percent and 90 percent, respectively. Probit analysis was applied to data collected from multiple dose rates of individual compounds utilizing the procedures explained in the following examples. The data for some of the dose rates and analysis of all of the dose rates are captured in the following tables.

[1] = BRAPP (broadleaf signalgrass, Brachiaria platyphylla), read-out: Visual Growth Reduction (%) 21 Days After Application BRAPP
[2] = CYPDI (small-flower flatsedge, Cyperus difformis), read-out: Visual Growth Reduction (%) 21 Days After Application CYPDI
[3] = CYPES (yellow nutsedge, Cyperus esculentus), read-out: Visual Growth Reduction (%) 21 Days After Application CYPES
[4] = CYPIR (rice flatsedge, Cyperus iria), read-out: Visual Growth Reduction (%) 21 Days After Application CYPIR
[5] = DIGSA (large crabgrass, Digitaria sanguinalis), read-out: Visual Growth Reduction (%) 21 Days After Application DIGSA
[6] = ECHCG (barnyardgrass, Echinochloa crus-galli), read-out: Visual Growth Reduction (%) 21 Days After Application ECHCG
[7] = ECHCO (junglerice, Echinochloa colonum), read-out: Visual Growth Reduction (%) 21 Days After Application ECHCO
[8] = LEFCH (Chinese sprangletop, Leptochloa chinensis), read-out: Visual Growth Reduction (%) 21 Days After Application LEFCH
[9] = ORYSJ (Oryza sativa, rice crop), read-out: Visual Growth Reduction (%) 21 Days After Application ORYSJ
[10] = ORYSK (Oryza sativa, rice crop), read-out: Visual Growth Reduction (%) 21 Days After Application ORYSK
[11] = SCPJU (Japanese bulrush, Schoenoplectus juncoides Roxb.), read-out: Visual Growth Reduction (%) 21 Days After Application SCPJU
[12] = SEBEX (hemp sesbania, Sesbania exaltata), read-out: Visual Growth Reduction (%) 21 Days After Application SEBEX

COc1c(C(=O)O)nc(-c2ccc3c(c2)OC(F)(F)O3)c(F)c1N [Compound 25]
GR50 BRAPP (BRAPP (Brachiaria platyphylla), probit analysis, dose for 50 percent growth reduction): 4 g ai/ha
GR80 BRAPP (BRAPP (Brachiaria platyphylla), probit analysis, dose for 80 percent growth reduction): 9 g ai/ha
GR90 BRAPP (BRAPP (Brachiaria platyphylla), probit analysis, dose for 90 percent growth reduction): 13 g ai/ha
GR50 CYPDI (CYPDI (Cyperus difformis), probit analysis, dose for 50 percent growth reduction): 0.04 g ai/ha
GR80 CYPDI (CYPDI (Cyperus difformis), probit analysis, dose for 80 percent growth reduction): 1 g ai/ha
GR90 CYPDI (CYPDI (Cyperus difformis), probit analysis, dose for 90 percent growth reduction): 2 g ai/ha
GR50 CYPES (CYPES (Cyperus esculentus), probit analysis, dose for 50 percent growth reduction): 0.04 g ai/ha
GR80 CYPES (CYPES (Cyperus esculentus), probit analysis, dose for 80 percent growth reduction): 1 g ai/ha
GR90 CYPES (CYPES (Cyperus esculentus), probit analysis, dose for 90 percent growth reduction): 1 g ai/ha
GR50 CYPIR (CYPIR (Cyperus iria), probit analysis, dose for 50 percent growth reduction): 2 g ai/ha
GR80 CYPIR (CYPIR (Cyperus iria), probit analysis, dose for 80 percent growth reduction): 5 g ai/ha
GR90 CYPIR (CYPIR (Cyperus iria), probit analysis, dose for 90 percent growth reduction): 9 g ai/ha
GR50 DIGSA (DIGSA (Digitaria sanguinalis), probit analysis, dose for 50 percent growth reduction): 27 g ai/ha
GR80 DIGSA (DIGSA (Digitaria sanguinalis), probit analysis, dose for 80 percent growth reduction): 2530 g ai/ha
GR90 DIGSA (DIGSA (Digitaria sanguinalis), probit analysis, dose for 90 percent growth reduction): 27000 g ai/ha
GR50 ECHCG (ECHCG (Echinochloa crus-galli), probit analysis, dose for 50 percent growth reduction): 0.025 g ai/ha
GR80 ECHCG (ECHCG (Echinochloa crus-galli), probit analysis, dose for 80 percent growth reduction): 1 g ai/ha
GR90 ECHCG (ECHCG (Echinochloa crus-galli), probit analysis, dose for 90 percent growth reduction): 3 g ai/ha
GR50 ECHCO (ECHCO (Echinochloa colonum), probit analysis, dose for 50 percent growth reduction): 2 g ai/ha
GR80 ECHCO (ECHCO (Echinochloa colonum), probit analysis, dose for 80 percent growth reduction): 4 g ai/ha
GR90 ECHCO (ECHCO (Echinochloa colonum), probit analysis, dose for 90 percent growth reduction): 6 g ai/ha
GR50 LEFCH (LEFCH (Leptochloa chinensis), probit analysis, dose for 50 percent growth reduction): 175 g ai/ha
GR80 LEFCH (LEFCH (Leptochloa chinensis), probit analysis, dose for 80 percent growth reduction): 463 g ai/ha
GR90 LEFCH (LEFCH (Leptochloa chinensis), probit analysis, dose for 90 percent growth reduction): 770 g ai/ha
GR20 ORYSJ (ORYSJ (Oryza sativa, rice crop), probit analysis, dose for 20 percent growth reduction): 1 g ai/ha
GR20 ORYSK (ORYSK (Oryza sativa, rice crop), probit analysis, dose for 20 percent growth reduction): 3 g ai/ha
GR50 SCPJU (SCPJU (Schoenoplectus juncoides Roxb.), probit analysis, dose for 50 percent growth reduction): 0.0001 g ai/ha
GR80 SCPJU (SCPJU (Schoenoplectus juncoides Roxb.), probit analysis, dose for 80 percent growth reduction): 0.0001 g ai/ha
GR90 SCPJU (SCPJU (Schoenoplectus juncoides Roxb.), probit analysis, dose for 90 percent growth reduction): 0.0001 g ai/ha
GR50 SEBEX (SEBEX (Sesbania exaltata), probit analysis, dose for 50 percent growth reduction): 19 g ai/ha
GR80 SEBEX (SEBEX (Sesbania exaltata), probit analysis, dose for 80 percent growth reduction): 26 g ai/ha
GR90 SEBEX (SEBEX (Sesbania exaltata), probit analysis, dose for 90 percent growth reduction): 30 g ai/ha
pest or weed control at 17.5 g/ha [1]: 95 to 100%
pest or weed control at 35 g/ha [1]: 95 to 100%
pest or weed control at 70 g/ha [1]: 95 to 100%
pest or weed control at 17.5 g/ha [2]: 95 to 100%
pest or weed control at 35 g/ha [2]: 95 to 100%
pest or weed control at 70 g/ha [2]: 95 to 100%
pest or weed control at 17.5 g/ha [3]: 95 to 100%
pest or weed control at 35 g/ha [3]: 95 to 100%
pest or weed control at 70 g/ha [3]: 95 to 100%
pest or weed control at 17.5 g/ha [4]: 85 to 94%
pest or weed control at 35 g/ha [4]: 95 to 100%
pest or weed control at 70 g/ha [4]: 95 to 100%
pest or weed control at 17.5 g/ha [5]: 30 to 44%
pest or weed control at 35 g/ha [5]: 60 to 74%
pest or weed control at 70 g/ha [5]: 60 to 74%
pest or weed control at 17.5 g/ha [6]: 95 to 100%
pest or weed control at 35 g/ha [6]: 95 to 100%
pest or weed control at 70 g/ha [6]: 95 to 100%
pest or weed control at 17.5 g/ha [7]: 95 to 100%
pest or weed control at 35 g/ha [7]: 95 to 100%
pest or weed control at 70 g/ha [7]: 95 to 100%
pest or weed control at 17.5 g/ha [8]: 0 to 29%
pest or weed control at 35 g/ha [8]: 0 to 29%
pest or weed control at 70 g/ha [8]: 0 to 29%
pest or weed control at 17.5 g/ha [9]: 85 to 94%
pest or weed control at 35 g/ha [9]: 95 to 100%
pest or weed control at 70 g/ha [9]: 95 to 100%
pest or weed control at 17.5 g/ha [10]: 85 to 94%
pest or weed control at 35 g/ha [10]: 85 to 94%
pest or weed control at 70 g/ha [10]: 95 to 100%
pest or weed control at 17.5 g/ha [11]: 95 to 100%
pest or weed control at 35 g/ha [11]: 95 to 100%
pest or weed control at 70 g/ha [11]: 95 to 100%
pest or weed control at 17.5 g/ha [12]: 0 to 29%
pest or weed control at 35 g/ha [12]: 95 to 100%
pest or weed control at 70 g/ha [12]: 95 to 100%
